{"source": "patent US9663511B2", "about": "“Sphingosine 1-phosphate receptor antagonists” (ARROYO BIOSCIENCES, LLC, priority 2012, dated 2017)", "key": {"[1]": {"assay": "In vitro plasma protein binding", "type": "in vitro ADME, mouse"}, "in vitro": {"assay": "in vitro", "conditions": "mouse, microsomes, NADPH-dependent Clint (microsomal intrinsic clearance)"}, "S1P2 receptor": {"target": "S1P2 receptor (Homo sapiens (Human), UniProt O95136)", "sequence (O95136 whole entry)": "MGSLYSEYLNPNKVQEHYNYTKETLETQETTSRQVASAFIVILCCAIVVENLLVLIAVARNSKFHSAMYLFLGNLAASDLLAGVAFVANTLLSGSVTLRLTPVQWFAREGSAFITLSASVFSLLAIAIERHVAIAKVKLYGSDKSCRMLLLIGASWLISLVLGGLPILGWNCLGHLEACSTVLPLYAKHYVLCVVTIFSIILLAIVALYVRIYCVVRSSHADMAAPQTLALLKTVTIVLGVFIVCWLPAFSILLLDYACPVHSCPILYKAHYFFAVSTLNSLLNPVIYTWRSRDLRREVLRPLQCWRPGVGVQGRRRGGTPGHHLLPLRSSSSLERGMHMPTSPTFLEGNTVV", "assay": "Antagonist assay (FLIPR TETRA, inhibition of reference agonist EC80) on S1P2", "type": "cell-based", "conditions": "tested as the citrate salt", "experimental": "(§1) Antagonist percentage inhibition determinations were obtained by assaying sample compounds and referencing the control (EC80) wells for each profiled (GPCR) which evaluated binding to S1P2 and S1P5 receptors. The samples were run using a single addition assay protocol. The protocol design is as follows.\n(§2) Unless specified otherwise, the sample compounds were diluted in 100% anhydrous DMSO including all dilutions. The compounds were tested as the citrate salt (1 equivalent per molecule). If the sample compound is provided in a different solvent all master stock dilutions are performed in the specified solvent. All control wells contained identical solvent final concentrations as the sample compound wells.\n(§3) The sample compounds were transferred from a master stock solution into a daughter plate that was used in the assay. Each sample compound was diluted into an assay buffer (1×HBSS with 20 mM HEPES, 2.5 mM Probenecid, and 0.4% Free Fatty Acid BSA) at an appropriate concentration to obtain final specified concentrations.\n(§4) Using the EC80 values that were determined real-time, stimulated all pre-incubated sample compounds and reference antagonists (if applicable) were compared with the EC80 values of reference agonist. These were read for 180 seconds using the FLIPR^TETRA (This assay added reference agonist to respective wells-then fluorescences measurements were collected to calculate IC50 values). All plates were subjected to appropriate baseline corrections. Once baseline corrections were processed, maximum fluorescence values were exported and data manipulated to calculate percentage activation, percentage inhibition and Z′."}, "S1P5 receptor": {"target": "S1P5 receptor (Homo sapiens (Human), UniProt Q9H228)", "sequence (Q9H228 whole entry)": "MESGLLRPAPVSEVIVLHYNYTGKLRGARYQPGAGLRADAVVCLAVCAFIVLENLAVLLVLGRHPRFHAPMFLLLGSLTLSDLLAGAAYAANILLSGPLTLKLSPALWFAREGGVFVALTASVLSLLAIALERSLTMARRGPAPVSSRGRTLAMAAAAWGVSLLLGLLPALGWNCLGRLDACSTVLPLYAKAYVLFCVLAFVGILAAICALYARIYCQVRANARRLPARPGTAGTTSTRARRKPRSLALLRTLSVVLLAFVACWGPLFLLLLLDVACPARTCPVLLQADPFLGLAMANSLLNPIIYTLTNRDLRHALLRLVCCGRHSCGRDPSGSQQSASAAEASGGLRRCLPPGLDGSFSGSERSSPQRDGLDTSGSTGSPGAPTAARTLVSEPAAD", "assay": "Antagonist assay (FLIPR TETRA, inhibition of reference agonist EC80) on S1P5", "type": "cell-based", "conditions": "tested as the citrate salt", "experimental": "as §1, §2, §3, §4"}, "[2]": {"assay": "Blood concentrations and pharmacokinetics after 1 mg/kg i.v. in mice", "type": "in vivo, mouse", "conditions": "for pharmacokinetics / blood levels following intravenous injection in mice (in words): comparison between compounds", "experimental": "1 mg/kg of the compound was injected by IV and blood was withdrawn at the times in table 1. The amount of starting compound was quantified by a standard curve using MS/MS determinations."}, "[3]": {"assay": "Microsomal intrinsic clearance", "conditions": "mouse, liver microsomes, mouse microsomes, test conc. 1 μM"}}, "note": "Where “and” joins values, the source holds several entries; their conditions need not be identical. Identical values can stand only once. Like-named read-outs stand apart in the source and are kept apart here."}
{"compound": "CC(=O)CC(c1ccccc1)c1c(O)c2ccccc2oc1=O", "note": "(stereo not drawn) [Warfarin, reference compound]", "values": [{"measurement": "mean fraction bound (%)", "setting": "[1]; mouse, 5 nM", "result": 92.1, "unit": "%"}, {"measurement": "microsomal CLint at 1 μM", "setting": "in vitro", "result": 15, "unit": "µL/min/mg"}]}
{"compound": "C=CCn1nc(C)c2c(C(C)C)cc(NNC(=O)Nc3cc(Cl)nc(Cl)c3)nc21", "note": "[Compound 1]", "values": [{"measurement": "IC50", "setting": "S1P2 receptor", "result": 1.2, "unit": "nM"}, {"measurement": "IC50", "setting": "S1P5 receptor", "result": 2.2, "unit": "nM"}, {"measurement": "AUC0-inf", "setting": "[2]; mouse blood, individual mice", "result": "92.4 ng·h/mL and 192 ng·h/mL"}, {"measurement": "AUC0-inf Extrapolated", "setting": "[2]; mouse blood, individual mice", "result": "19.3% and 63.8%"}, {"measurement": "AUC0-tlast", "setting": "[2]; mouse blood, individual mice", "result": "74.6 ng·h/mL and 69.5 ng·h/mL"}, {"measurement": "AUMC0-inf", "setting": "[2]; mouse blood, individual mice", "result": "604 h^2*ng/mL and 9010 h^2*ng/mL"}, {"measurement": "AUMC0-inf Extrapolated", "setting": "[2]; mouse blood, individual mice", "result": "74.1% and 98.2%"}, {"measurement": "AUMC0-tlast", "setting": "[2]; mouse blood, individual mice", "result": "12.7 h^2*ng/mL and 157 h^2*ng/mL and 166 h^2*ng/mL"}, {"measurement": "C0", "setting": "[2]; mouse blood, individual mice", "result": "262 ng/mL and 251 ng/mL"}, {"measurement": "CL", "setting": "[2]; mouse blood, individual mice", "result": "180 mL/min/kg and 86.7 mL/min/kg"}, {"measurement": "MRT0-inf", "setting": "[2]; mouse blood, individual mice", "result": "6.53 h and 46.9 h"}, {"measurement": "MRT0-tlast", "setting": "[2]; mouse blood, individual mice", "result": "0.236 h and 2.10 h and 2.39 h"}, {"measurement": "Terminal half-life", "setting": "[2]; mouse blood, individual mice", "result": "9.08 h and 41.7 h"}, {"measurement": "Vss", "setting": "[2]; mouse blood, individual mice", "result": "70.7 L/kg and 244 L/kg"}, {"measurement": "AUC0-inf Extrapolated, Mean S.D.", "setting": "[2]; mouse blood, mean", "result": "41.5 (n = 2) %"}, {"measurement": "AUMC0-inf Extrapolated, Mean S.D.", "setting": "[2]; mouse blood, mean", "result": "86.1 (n = 2) %"}, {"measurement": "AUMC0-inf, Mean S.D.", "setting": "[2]; mouse blood, mean", "result": "4810 (n = 2) h^2*ng/mL"}, {"measurement": "AUMC0-tlast, Mean S.D.", "setting": "[2]; mouse blood, mean", "result": "112 ± 86.0", "unit": "h^2*ng/mL"}, {"measurement": "C0, Mean S.D.", "setting": "[2]; mouse blood, mean", "result": "295 ± 66.2", "unit": "ng/mL"}, {"measurement": "Blood Concentrations", "setting": "[2]; mouse, 5 min, individual mice, LLOQ = 1 ng/mL", "result": "152 ng/mL and 143 ng/mL"}, {"measurement": "Blood Concentrations", "setting": "[2]; mouse, 0.25 h, individual mice, LLOQ = 1 ng/mL", "result": "51.2 ng/mL and 46.3 ng/mL"}, {"measurement": "Blood Concentrations", "setting": "[2]; mouse, 0.5 h, individual mice, LLOQ = 1 ng/mL", "result": "22.8 ng/mL and 17.1 ng/mL"}, {"measurement": "Blood Concentrations", "setting": "[2]; mouse, 1 h, individual mice, LLOQ = 1 ng/mL", "result": "7.90 ng/mL and 6.44 ng/mL"}, {"measurement": "Blood Concentrations", "setting": "[2]; mouse, 2 h, individual mice, LLOQ = 1 ng/mL", "result": "1.13 ng/mL and 3.12 ng/mL and 2.96 ng/mL"}, {"measurement": "Blood Concentrations", "setting": "[2]; mouse, 4 h, individual mice, LLOQ = 1 ng/mL", "result": "BLQ and 1.98 ng/mL"}, {"measurement": "Blood Concentrations", "setting": "[2]; mouse, 6 h, individual mice, LLOQ = 1 ng/mL", "result": "BLQ and 2.25 ng/mL"}, {"measurement": "Blood Concentrations", "setting": "[2]; mouse, 12 h, individual mice, LLOQ = 1 ng/mL", "result": "BLQ and 2.04 ng/mL"}, {"measurement": "pharmacokinetics / blood levels following intravenous injection in mice (in words)", "setting": "[2]; mouse", "result": "substantially improved pharmacokinetics"}, {"measurement": "pharmacokinetics / blood levels following intravenous injection in mice (in words)", "setting": "[2]; mouse, listed as compound 1", "result": "highest drug blood levels over time"}, {"measurement": "AUC(0-t)", "setting": "[2]; mouse, whole blood, iv, 1 mg/kg, mouse blood, individual mice, read-out: AUC0-tlast", "result": 53.9, "unit": "ng·h/mL"}, {"measurement": "C0", "setting": "[2]; mouse, whole blood, iv, 1 mg/kg, mouse blood, individual mice, read-out: C0", "result": 371, "unit": "ng/mL"}, {"measurement": "AUC0-inf", "setting": "[2]; mouse, whole blood, iv, 1 mg/kg, mouse blood, mean, read-out: AUC0-inf, Mean S.D.", "result": 142, "unit": "ng·h/mL"}, {"measurement": "AUC(0-t)", "setting": "[2]; mouse, whole blood, iv, 1 mg/kg, mouse blood, mean, read-out: AUC0-tlast, Mean S.D.", "result": "66 ± 10.8", "unit": "ng·h/mL"}, {"measurement": "clearance", "setting": "[2]; mouse, whole blood, iv, 1 mg/kg, mouse blood, mean, read-out: CL, Mean S.D. (converted)", "result": 134, "unit": "mL/min/kg"}, {"measurement": "MRT inf", "setting": "[2]; mouse, whole blood, iv, 1 mg/kg, mouse blood, mean, read-out: MRT0-inf, Mean S.D.", "result": 26.7, "unit": "h"}, {"measurement": "MRT last", "setting": "[2]; mouse, whole blood, iv, 1 mg/kg, mouse blood, mean, read-out: MRT0-tlast, Mean S.D.", "result": 1.58, "unit": "h"}, {"measurement": "half-life", "setting": "[2]; mouse, whole blood, iv, 1 mg/kg, mouse blood, mean, read-out: Terminal half-life, Mean S.D. (converted)", "result": 25.4, "unit": "h"}, {"measurement": "Vd", "setting": "[2]; mouse, whole blood, iv, 1 mg/kg, mouse blood, mean, read-out: Vss, Mean S.D.", "result": 157, "unit": "L/kg"}, {"measurement": "concentration at 5 min", "setting": "[2]; mouse, whole blood, iv, 1 mg/kg, mouse, 5 min, individual mice, LLOQ = 1 ng/mL, read-out: Blood Concentrations", "result": 188, "unit": "ng/mL"}, {"measurement": "concentration at 5 min", "setting": "[2]; mouse, whole blood, iv, 1 mg/kg, mouse, 5 min, mean of 3 mice, read-out: Blood Concentrations, Mean S.D.", "result": "161 ± 23.8", "unit": "ng/mL"}, {"measurement": "concentration at 0.25 h", "setting": "[2]; mouse, whole blood, iv, 1 mg/kg, mouse, 0.25 h, individual mice, LLOQ = 1 ng/mL, read-out: Blood Concentrations", "result": 48.3, "unit": "ng/mL"}, {"measurement": "concentration at 0.25 h", "setting": "[2]; mouse, whole blood, iv, 1 mg/kg, mouse, 0.25 h, mean of 3 mice, read-out: Blood Concentrations, Mean S.D.", "result": "48.6 ± 2.46", "unit": "ng/mL"}, {"measurement": "concentration at 0.5 h", "setting": "[2]; mouse, whole blood, iv, 1 mg/kg, mouse, 0.5 h, individual mice, LLOQ = 1 ng/mL, read-out: Blood Concentrations", "result": 14.9, "unit": "ng/mL"}, {"measurement": "concentration at 0.5 h", "setting": "[2]; mouse, whole blood, iv, 1 mg/kg, mouse, 0.5 h, mean of 3 mice, read-out: Blood Concentrations, Mean S.D.", "result": "18.3 ± 4.08", "unit": "ng/mL"}, {"measurement": "concentration at 1 h", "setting": "[2]; mouse, whole blood, iv, 1 mg/kg, mouse, 1 h, individual mice, LLOQ = 1 ng/mL, read-out: Blood Concentrations", "result": 5.11, "unit": "ng/mL"}, {"measurement": "concentration at 1 h", "setting": "[2]; mouse, whole blood, iv, 1 mg/kg, mouse, 1 h, mean of 3 mice, read-out: Blood Concentrations, Mean S.D.", "result": "6.48 ± 1.4", "unit": "ng/mL"}, {"measurement": "concentration at 2 h", "setting": "[2]; mouse, whole blood, iv, 1 mg/kg, mouse, 2 h, mean of 3 mice, read-out: Blood Concentrations, Mean S.D.", "result": "2.4 ± 1.11", "unit": "ng/mL"}, {"measurement": "concentration at 4 h", "setting": "[2]; mouse, whole blood, iv, 1 mg/kg, mouse, 4 h, individual mice, LLOQ = 1 ng/mL, read-out: Blood Concentrations", "result": 2.22, "unit": "ng/mL"}, {"measurement": "concentration at 4 h", "setting": "[2]; mouse, whole blood, iv, 1 mg/kg, mouse, 4 h, mean (n = 2 for Cmpd-1), read-out: Blood Concentrations, Mean S.D.", "result": 2.1, "unit": "ng/mL"}, {"measurement": "concentration at 6 h", "setting": "[2]; mouse, whole blood, iv, 1 mg/kg, mouse, 6 h, individual mice, LLOQ = 1 ng/mL, read-out: Blood Concentrations", "result": 2.55, "unit": "ng/mL"}, {"measurement": "concentration at 6 h", "setting": "[2]; mouse, whole blood, iv, 1 mg/kg, mouse, 6 h, mean (n = 2 for Cmpd-1), read-out: Blood Concentrations, Mean S.D.", "result": 2.4, "unit": "ng/mL"}, {"measurement": "concentration at 12 h", "setting": "[2]; mouse, whole blood, iv, 1 mg/kg, mouse, 12 h, individual mice, LLOQ = 1 ng/mL, read-out: Blood Concentrations", "result": 1.36, "unit": "ng/mL"}, {"measurement": "concentration at 12 h", "setting": "[2]; mouse, whole blood, iv, 1 mg/kg, mouse, 12 h, mean (n = 2 for Cmpd-1), read-out: Blood Concentrations, Mean S.D.", "result": 1.7, "unit": "ng/mL"}, {"measurement": "mean fraction bound (%)", "setting": "[1]; mouse plasma, test concentration 5 nM", "result": 99.9, "unit": "%"}, {"measurement": "microsomal CLint at 1 μM", "setting": "[3]; NADPH-dependent Clint (microsomal intrinsic clearance)", "result": 1170, "unit": "µL/min/mg"}, {"measurement": "half-life at 1 μM", "setting": "[3]; NADPH-dependent T1/2 (half-life)", "result": 0.0333, "unit": "h"}, {"measurement": "microsomal CLint at 1 μM", "setting": "[3]; NADPH-free Clint (microsomal intrinsic clearance)", "result": 48, "unit": "µL/min/mg"}, {"measurement": "half-life at 1 μM", "setting": "[3]; NADPH-free T1/2 (half-life)", "result": 0.8, "unit": "h"}]}
